Patent US11220482B2, “Aminopyridinemethanol compounds and their use” (UNIVERSITE AMIENS PICARDIE JULES VERNE, priority 2017, dated 2022)
Counter-ions that a name gives are not always drawn. Like-named read-outs stand apart in the source and are kept apart here.

Assays:
[1] = tested on: Plasmodium falciparum 3D7; assay: Plasmodium falciparum susceptibility assay, first round (SYBR Green I); type: cell-based
[2] = tested on: Plasmodium falciparum W2; assay: as above; type: cell-based
[3] = 3D7, first round, 48-h incubation, strain susceptible to CQ, decreased susceptibility to MQ, read-out: IC50 (nM) Plasmodium falciparum 3D7 (converted)
[4] = W2, first round, 48-h incubation, strain resistant to CQ, sensitive to MQ, read-out: IC50 (nM) Plasmodium falciparum W2 (converted)

SMILES	IC50 [1, 3]	IC50 [2, 4]	IC50 ([1]; 3D7, 48 h, read-out: IC50 (nM) Plasmodium falciparum 3D7)	IC50 ([2]; W2, 48 h, read-out: IC50 (nM) Plasmodium falciparum W2)
CCCCCCCNC[C@@H](O)c1cc(-c2ccc(C(F)(F)F)cc2)nc(C(F)(F)F)c1 [Compound 1e, (S)-2-(Heptylamino)-1-(2-(trifluoromethyl)-6-(4-(trifluoromethyl)phenyl)pyridin-4-yl)ethanol]	17.7 nM	5.6 nM		
CCN(CC)CCCC(C)Nc1ccnc2cc(Cl)ccc12 (centres unmarked) [CQ, Chloroquine, reference compound]			75.9 ± 3 nM	199 ± 27 nM
CCCCCCCNC[C@H](O)c1cc(-c2ccc(C(F)(F)F)cc2)nc(C(F)(F)F)c1 [Compound 1f, (R)-2-(Heptylamino)-1-(2-(trifluoromethyl)-6-(4-(trifluoromethyl)phenyl)pyridin-4-yl)ethanol]	54.4 nM	3.5 nM		
CCCCCCNC[C@H](O)c1cc(-c2ccc(C(F)(F)F)cc2)nc(C(F)(F)F)c1 [Compound 1d, (R)-2-(Hexylamino)-1-(2-(trifluoromethyl)-6-(4-(trifluoromethyl)phenyl)pyridin-4-yl)ethanol]	32.3 nM	8.3 nM		
CCCCCNC[C@H](O)c1cc(-c2ccc(C(F)(F)F)cc2)nc(C(F)(F)F)c1 [Compound 1b, (R)-2-(Pentylamino)-1-(2-(trifluoromethyl)-6-(4-(trifluoromethyl)phenyl)pyridin-4-yl)ethanol]	41.8 nM	7.2 nM		
COC[C@H](Cc1ccccc1)NC[C@H](O)c1cc(-c2ccc(C(F)(F)F)cc2)nc(C(F)(F)F)c1 [Compound 1j, (R)-2-(((S)-1-Methoxy-3-phenylpropan-2-yl)amino)-1-(2-(trifluoromethyl)-6-(4-(trifluoromethyl)phenyl)pyridin-4-yl)ethanol]	32.8 nM	14.4 nM		
CCCCCCNC[C@@H](O)c1cc(-c2ccc(C(F)(F)F)cc2)nc(C(F)(F)F)c1 [Compound 1c, (S)-2-(Hexylamino)-1-(2-(trifluoromethyl)-6-(4-(trifluoromethyl)phenyl)pyridin-4-yl)ethanol]	47.1 ± 13.2 nM			
O[C@@H](CNCCNC(c1ccccc1)c1ccccc1)c1cc(-c2ccc(C(F)(F)F)cc2)nc(C(F)(F)F)c1 [Compound 1h, (R)-2-((2-Benzhydrylamino)ethylamino)-1-(2-(trifluoromethyl)-6-(4-(trifluoromethyl)phenyl)pyridin-4-yl)ethanol]	25 nM	5.9 nM		
O[C@H](CNCCCN1CCN(C(c2ccccc2)c2ccccc2)CC1)c1cc(-c2ccc(C(F)(F)F)cc2)nc(C(F)(F)F)c1 [1m•HCl, (S)-2-((3-(4-benzhydrylpiperazin-1-yl)propyl)amino)-1-(2-(trifluoromethyl)-6-(4-(trifluoromethyl)phenyl)pyridin-4-yl)ethanol hydrochloride]		67 ± 9.3 nM		
O[C@H](CNCCCN1CCN(C(c2ccccc2)c2ccccc2)CC1)c1cc(-c2ccc(C(F)(F)F)cc2)nc(C(F)(F)F)c1 [Compound 1m, (S)-2-((3-(4-benzhydrylpiperazin-1-yl)propyl)amino)-1-(2-(trifluoromethyl)-6-(4-(trifluoromethyl)phenyl)pyridin-4-yl)ethanol]	126 nM			
O[C@H](CNCCNC(c1ccccc1)c1ccccc1)c1cc(-c2ccc(C(F)(F)F)cc2)nc(C(F)(F)F)c1 [Compound 1g, (S)-2-((2-(Benzhydrylamino)ethyl)amino)-1-(2-(trifluoromethyl)-6-(4-(trifluoromethyl)phenyl)pyridin-4-yl)ethanol]	22.4 ± 2.5 nM	13.1 ± 1 nM		
O[C@@H](CNCCCN1CCN(C(c2ccccc2)c2ccccc2)CC1)c1cc(-c2ccc(C(F)(F)F)cc2)nc(C(F)(F)F)c1 [1n•HCl, (R)-2-((3-(4-benzhydrylpiperazin-1-yl)propyl)amino)-1-(2-(trifluoromethyl)-6-(4-(trifluoromethyl)phenyl)pyridin-4-yl)ethanol hydrochloride]	125 nM			

Now from value to compound, other results behind:

IC50 [1, 3]	IC50 [2, 4]	SMILES	IC50 ([1]; 3D7, 48 h, read-out: IC50 (nM) Plasmodium falciparum 3D7)	IC50 ([2]; W2, 48 h, read-out: IC50 (nM) Plasmodium falciparum W2)
1380 nM	523 nM	CCCCNC[C@H](O)c1ccc(-c2ccc(C(F)(F)F)cc2)nc1C(F)(F)F [Compound 30b]		
558 nM	551 nM	CCCCCNC[C@H](O)c1ccc(-c2ccc(C(F)(F)F)cc2)nc1C(F)(F)F [Compound 30d, (R)-2-(Pentylamino)-1-(2-(trifluoromethyl)-6-(4-(trifluoromethyl)phenyl)pyridin-3-yl)ethanol]		
575 nM	523 nM	CCCCCCNC[C@H](O)c1ccc(-c2ccc(C(F)(F)F)cc2)nc1C(F)(F)F [Compound 30f, (R)-2-(Hexylamino)-1-(2-(trifluoromethyl)-6-(4-(trifluoromethyl)phenyl)pyridin-3-yl)ethanol]		
65.3 ± 8.4 nM	351 ± 50.7 nM	COC[C@H](Cc1ccccc1)NC[C@@H](O)c1ccc(-c2ccc(C(F)(F)F)cc2)nc1C(F)(F)F [Compound 30k, (S)-2-(((S)-1-methoxy-3-phenylpropan-2-yl)amino)-1-(2-(trifluoromethyl)-6-(4-(trifluoromethyl)phenyl)pyridin-3-yl)ethanol]		
92.1 nM	171 nM	O[C@@H](CNCCNC(c1ccccc1)c1ccccc1)c1ccc(-c2ccc(C(F)(F)F)cc2)nc1C(F)(F)F [Compound 30j, (R)-2-((2-(Benzhydrylamino)ethyl)amino)-1-(2-(trifluoromethyl)-6-(4-(trifluoromethyl)phenyl)pyridin-3-yl)ethanol]		
479 ± 38.2 nM	132 ± 10.3 nM	CCCCNC[C@@H](O)c1ccc(-c2ccc(C(F)(F)F)cc2)nc1C(F)(F)F [Compound 30a, (S)-2-(Butylamino)-1-(2-(trifluoromethyl)-6-(4-(trifluoromethyl)phenyl)pyridin-3-yl)ethanol]		
84.9 nM	89.6 nM	O[C@@H](CNCCCN1CCN(C(c2ccccc2)c2ccccc2)CC1)c1ccc(-c2ccc(C(F)(F)F)cc2)nc1C(F)(F)F [Compound 30p, (R)-2-((3-(4-Benzhydrylpiperazin-1-yl)propyl)amino)-1-(2-(trifluoromethyl)-6-(4-(trifluoromethyl)phenyl)pyridin-3-yl)ethanol]		
111 ± 8.3 nM	212 ± 38.6 nM	O[C@H](CNCCCN1CCN(C(c2ccccc2)c2ccccc2)CC1)c1ccc(-c2ccc(C(F)(F)F)cc2)nc1C(F)(F)F [Compound 30o]		
170 ± 24 nM	27.2 ± 9.3 nM	CCCCCCNC[C@@H](O)c1ccc(-c2ccc(C(F)(F)F)cc2)nc1C(F)(F)F [Compound 30e, (S)-2-(Hexylamino)-1-(2-(trifluoromethyl)-6-(4-(trifluoromethyl)phenyl)pyridin-3-yl)ethanol]		
414 nM	258 nM	COC[C@H](Cc1ccccc1)NC[C@H](O)c1ccc(-c2ccc(C(F)(F)F)cc2)nc1C(F)(F)F [Compound 30l, (R)-2-(((S)-1-methoxy-3-phenylpropan-2-yl)amino)-1-(2-(trifluoromethyl)-6-(4-(trifluoromethyl)phenyl)pyridin-3-yl)ethanol]		
32.9 nM	248 ± 36 nM	O[C@H](CNCCNC(c1ccccc1)c1ccccc1)c1ccc(-c2ccc(C(F)(F)F)cc2)nc1C(F)(F)F [Compound 30i, (S)-2-((2-(Benzhydrylamino)ethyl)amino)-1-(2-(trifluoromethyl)-6-(4-(trifluoromethyl)phenyl)pyridin-3-yl)ethanol]		
519 nM	31.7 nM	CCCCCCCNC[C@H](O)c1ccc(-c2ccc(C(F)(F)F)cc2)nc1C(F)(F)F [Compound 30h, (R)-2-(Heptylamino)-1-(2-(trifluoromethyl)-6-(4-(trifluoromethyl)phenyl)pyridin-3-yl) ethanol]		
